For data set [1], the system named is HMC-1-8 cells. Nature of the data set: Antiproliferation assay (CellTiter-Glo, 72 h), HMC-1-8. It is filed as cell-based. The conditions noted are these: IC50, median, HMC-1-8, 72 h, read-out: Antiproli HMC-1-8 [M] median. How it is done: (§1) Assessment of the Anti-Proliferative Effect of Compounds in Different Cell Lines
(§2) The impact of compounds on the proliferation of different cell lines was assessed using the CellTiter-Glo® Luminescent Cell Viability reagent from Promega (G7573).
(§3) In parallel, cells were plated in a reference (day 0) plate for time zero determination.
(§4) Rim wells were excluded. The cells were incubated for 72 h hours in a humidified incubator at 37° C. The day 0 plate was measured by adding 30 μL/well of CTG solution (CellTiter-Glo® Luminescent Cell Viability reagent, Promega G7573) to time zero wells in the reference plate followed by a 10 minutes incubation and luminescence reading at 0.1 ms. using the PHERAstar FS microplate reader (BMG Labtech).
(§5) After 72 h incubation, the treated plates were measured in the same way as the day 0 plate mentioned above.
On the technique in general: In ATP-based viability assays light output follows the ATP content of the culture.

The test system of data set [2] is SUDHL10 cells. The data set is described as follows: Induction of caspase-3/7 activity (Caspase-Glo 3/7), SUDHL10. It is filed as cell-based. The conditions noted are these: EC50, median, SUDHL10, 3 h treatment. A digest of the protocol:
(§6)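 Read-out: Caspase-Glo 3/7 signal, background-corrected against medium-only wells, taken after cells had been incubated with compounds for 3 h at 37 °C.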

Data set [3] concerns SUDHL10 cells. The data set is described as follows: Induction of cytotoxicity (CellTiter-Glo, 5 h), SUDHL10. The conditions noted are these: SUDHL10, 5 h.
The test system of data set [4] is AMO-1 cells. The data set is described as follows: Antiproliferation assay (CellTiter-Glo, 72 h), AMO-1. It is filed as cell-based. Particulars: IC50, median, AMO-1, 72 h, read-out: Antiproli AMO-1 [M] median. Put shortly: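 Treated cells sat 72 h in a humidified 37 °C incubator, outer wells unused, before CellTiter-Glo reagent and a 10 min wait preceded luminescence reading; identical measurement of a parallel day 0 plate defined time zero.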

Data set [5] concerns SUDHL5 cells. The data set is described as follows: Induction of cytotoxicity (CellTiter-Glo, 5 h), SUDHL5. The conditions noted are these: SUDHL5, 5 h.
Method: Therefore, cytotoxicity assays were run in parallel in SUDHL5 and SUDHL10 cells.
The different cell lines were plated in culture medium (RPMI 1640 [GIBCO #22400-089] supplemented with 10% Fetal Bovine Serum) at a density of 3,300 cells in 30 μL/well in a sterile, solid black, flat bottom, polystyrene, TC-treated 384-well microplate (Corning #3571) using Multidrop Combi Reagent Dispenser. As a control, medium without cells was also added to the plate. Cells were incubated in a humidified incubator at 37° C. overnight. […] Rim wells were excluded. The cells were incubated for 5 h hours in a humidified incubator at 37° C. After this incubation, 30 μL of CellTiter-Glo® Luminescent Cell Viability reagent (Promega, G7573) was added to each well using the Multidrop Combi Reagent Dispenser, followed by 15 min incubation on a shaker at room temperature. Finally, luminescence was read at 0.1 ms, with a gain of 3000 using the PHERAstar FS microplate reader (BMG Labtech).
The test system of data set [6] is SUDHL5 cells. Nature of the data set: Induction of caspase-3/7 activity (Caspase-Glo 3/7), SUDHL5. The format is cell-based. Particulars: EC50, median, SUDHL5, 3 h treatment. Put shortly: as §6
Data set [7] has as its system SUDHL5 cells. Nature of the data set: Antiproliferation assay (CellTiter-Glo, 72 h), SUDHL5. It is filed as cell-based. Particulars: Homo sapiens, SU-DHL-5, 72 h, IC50, median; SUDHL5, 72 h; read-out: Antiproli SUDHL5 [M] (median). On the procedure: as §1, §2, §3, §4, §5
[8] abbreviates: Homo sapiens, SU-DHL10, 5 h, read-out: Cytotox SUDHL10 [M] (median), IC50, median.
Setting [9] is: read-out: Cytotox SUDHL5 [M] (median), IC50, median.

Where a name gives a salt, the structure may show the parent alone. Read-outs that look alike come from different tables or passages of the source.

A word on the EC50: it is the concentration needed to bring the measured effect to its halfway point. The low end stands for a more potent agent, the high end for a less potent agent.

Consider `CCc1c2c(nn1C)CN(CCOC)CCCCn1c(C(=O)O)c(CCCOc3cccc4cc(F)ccc34)c3ccc(Cl)c-2c31` (racemic) [Example 131, (rac)-4-chloro-3-ethyl-7-{3-[(6-fluoronaphthalen-1-yl)oxy]propyl}-14-(2-methoxyethyl)-2-methyl-10,11,12,13,14,15-hexahydro-2H-pyrazolo[3′,4′:8,9][1,6]diazacycloundecino[10,11,1-hi]indole-8-carboxylic acid], for which the IC50 in data set [1] (72 h) was found to be 1.3e-06 M; in data set [3] (setting [8]) it was 1.5e-07 M. In data set [2] (Homo sapiens, SU-DHL10, 3 h), this compound registered an EC50 of 130 nM.
As for `CCc1c2c(nn1C)CN(CCN1CCOCC1)CCCCn1c(C(=O)O)c(CCCOc3cccc4cc(F)ccc34)c3ccc(Cl)c-2c31` (single isomer, unassigned; enantiomer 1) [Example 142, 4-chloro-3-ethyl-7-{3-[(6-fluoronaphthalen-1-yl)oxy]propyl}-2-methyl-14-[2-(morpholin-4-yl)ethyl]-10,11,12,13,14,15-hexahydro-2H-pyrazolo[3′,4′:8,9][1,6]diazacycloundecino[10,11,1-hi]indole-8-carboxylic acid (Enantiomer 1)], in data set [1], the IC50 was 7.5e-07 M.
On to `CCc1c2c(nn1C)CN(CCCO)CCCCn1c(C(=O)O)c(CCCOc3cccc4cc(F)ccc34)c3ccc(Cl)c-2c31` (racemic) [Example 139, (rac)-4-chloro-3-ethyl-7-{3-[(6-fluoronaphthalen-1-yl)oxy]propyl}-14-(3-hydroxypropyl)-2-methyl-10,11,12,13,14,15-hexahydro-2H-pyrazolo[3′,4′:8,9][1,6]diazacycloundecino[10,11,1-hi]indole-8-carboxylic acid], for which the IC50 stood at 5.7e-06 M in data set [1] (72 h) and 4.4e-07 M in data set [4] (Homo sapiens, AMO1, 72 h).
For the compound `Cc1c2c(nn1C)COCCC(F)(F)Cn1c(C(=O)O)c(CCCOc3cccc4cc(F)ccc34)c3ccc(Cl)c-2c31` (racemic) [Example 93, (rac)-4-Chloro-11,11-difluoro-7-{3-[(6-fluoronaphthalen-1-yl)oxy]propyl}-2,3-dimethyl-2,10,11,12,13,15-hexahydropyrazolo[4′,3′:9,10][1,6]oxazacycloundecino[8,7,6-hi]indole-8-carboxylic acid], the IC50 in data set [1] (72 h) was 4.9e-06 M; in data set [4] (Homo sapiens, AMO1, 72 h), 1.2e-06 M; in data set [5] (Homo sapiens, SU-DHL-5, 5 h, read-out: Cytotox SUDHL5 [M] (median), IC50, median), 3.5e-07 M; in data set [3] (setting [8]), 4.3e-07 M. Moreover, the response in data set [2] (Homo sapiens, SU-DHL10, 3 h) was half-maximal at 220 nM (EC50).
As for `CCc1c2c(nn1C)CN(CCC(C)(C)O)CCCCn1c(C(=O)O)c(CCCOc3cccc4cc(F)ccc34)c3ccc(Cl)c-2c31` (single isomer, unassigned; enantiomer 1) [Example 140, 4-chloro-3-ethyl-7-{3-[(6-fluoronaphthalen-1-yl)oxy]propyl}-14-(3-hydroxy-3-methylbutyl)-2-methyl-10,11,12,13,14,15-hexahydro-2H-pyrazolo[3′,4′:8,9][1,6]diazacycloundecino[10,11,1-hi]indole-8-carboxylic acid (Enantiomer 1)], the IC50 in data set [1] (72 h) was determined as 1.4e-06 M.
`Cc1c2c(nn1CCCN1CCN(C)CC1)COCCCCn1c(C(=O)O)c(CCCOc3cccc4ccccc34)c3ccc(Cl)c-2c31` (single isomer, unassigned; enantiomer 2) [Example 50, (−)-4-chloro-3-methyl-2-[3-(4-methylpiperazin-1-yl)propyl]-7-{3-[(naphthalen-1-yl)oxy]propyl}-2,10,11,12,13,15-hexahydropyrazolo[4′,3′:9,10][1,6]oxazacycloundecino[8,7,6-hi]indole-8-carboxylic acid (Enantiomer 2)]: the IC50 was determined as 3.1e-06 M in data set [1] (72 h), 1.3e-06 M in data set [4] and 4.4e-07 M in data set [5] (setting [9]). This compound also gave an EC50 in data set [6] of 360 nM.
In the case of `CCc1nn(CCN2CCOCC2)c2c1-c1c(Cl)ccc3c(CCCOc4cccc5ccccc45)c(C(=O)O)n(c13)C/C=C\CN(C)C2` (single isomer, unassigned; enantiomer 2) [Example 44, (11Z)-4-chloro-3-ethyl-14-methyl-1-[2-(morpholin-4-yl)ethyl]-7-{3-[(naphthalen-1-yl)oxy]propyl}-10,13,14,15-tetrahydro-1H-pyrazolo[3′,4′:8,9][1,6]diazacycloundecino[10,11,1-hi]indole-8-carboxylic acid-ammonia salt (Enantiomer 2)], the IC50 was determined as 2.1e-06 M in data set [1] (72 h), 1.1e-06 M in data set [4] and 7e-07 M in data set [5] (setting [9]).
Take `CCc1c2c(nn1C)COCCCCn1c(C(=O)O)c(CCCOc3cccc4ccccc34)c3ccc(Cl)c-2c31` (single isomer, unassigned; enantiomer 1) [Example 20, 4-chloro-3-ethyl-2-methyl-7-[3-(naphthalen-1-yloxy)propyl]-2,10,11,12,13,15-hexahydropyrazolo[4′,3′:9,10][1,6]oxazacycloundecino[8,7,6-hi]indole-8-carboxylic acid (Enantiomer 1)]: the IC50 in data set [1] (72 h) is 2.5e-06 M; in data set [4] (Homo sapiens, AMO1, 72 h), 8.7e-07 M; in data set [3] (setting [8]), 6.9e-07 M. For the same compound, in data set [2] (Homo sapiens, SU-DHL10, 3 h), the EC50 stood at 390 nM.
`Cc1c2c(nn1C)COCCn1c(C(=O)O)c(CCCOc3cccc4ccccc34)c3ccc(Cl)c-2c31` (single isomer, unassigned) [Example 88, 11-chloro-9,10-dimethyl-1-{3-[(naphthalen-1-yl)oxy]propyl}-4,5,7,9-tetrahydropyrazolo[4′,3′:7,8][1,4]oxazonino[6,5,4-hi]indole-2-carboxylic acid]: the IC50 in data set [1] (72 h) came to 4.5e-06 M; in data set [4] (Homo sapiens, AMO1, 72 h), 6.7e-06 M; in data set [3] (setting [8]) it was 4e-06 M. The EC50 is 7400 nM in data set [6] (Homo sapiens, SU-DHL-5, 3 h) and 4300 nM in data set [2] (Homo sapiens, SU-DHL10, 3 h).
Regarding `Cc1c2c(nn1C)CN(C)CCCCn1c(C(=O)O)c(CCCOc3cccc4ccccc34)c3ccc(Cl)c-2c31` (racemic) [Example 11, (rac)-4-chloro-2,3,14-trimethyl-7-[3-(naphthalen-1-yloxy)propyl]-10,11,12,13,14,15-hexahydro-2H-pyrazolo[3′,4′:8,9][1,6]diazacycloundecino[10,11,1-hi]indole-8-carboxylic acid], the IC50 in data set [1] (72 h) came to 4.2e-06 M; in data set [4] (Homo sapiens, AMO1, 72 h), 7.3e-07 M.
For `CCc1nn(C)c2c1-c1c(Cl)ccc3c(CCCOc4cccc5cc(F)ccc45)c(C(=O)O)n(c13)CCCCOC2` (single isomer, unassigned; enantiomer 1) [Example 34, (+)-4-chloro-3-ethyl-7-{3-[(6-fluoronaphthalen-1-yl)oxy]propyl}-1-methyl-1,10,11,12,13,15-hexahydropyrazolo[4′,3′:9,10][1,6]oxazacycloundecino[8,7,6-hi]indole-8-carboxylic acid (Enantiomer 1)], the IC50 in data set [1] (72 h) was 2e-06 M; in data set [4] (Homo sapiens, AMO1, 72 h) it was 1.4e-06 M. A half-maximal response in data set [2] (Homo sapiens, SU-DHL10, 3 h) (EC50) required 930 nM.
Take `Cc1c2c(nn1C)COCC1CCC1Cn1c(C(=O)O)c(CCCOc3cccc4ccccc34)c3ccc(Cl)c-2c31` (single isomer, unassigned) [Example 80, 3-chloro-4,5-dimethyl-15-{3-[(naphthalen-1-yl)oxy]propyl}-5,7,9,9a,10,11,11a,12-octahydrocyclobuta[3,4]pyrazolo[4′,3′:9,10][1,6]oxazacycloundecino[8,7,6-hi]indole-14-carboxylic acid]: the IC50 in data set [4] (Homo sapiens, AMO1, 72 h) was 1.9e-06 M; in data set [7], 2.2e-07 M; in data set [5] (read-out: Cytotox SUDHL5 [M] (median), IC50, median, listed as 080), 5.8e-07 M; in data set [3] (read-out: Cytotox SUDHL10 [M] (median), IC50, median, listed as 080), 8.1e-07 M. Also, the EC50 turned out to be 490 nM in data set [6] (listed as 080) and 450 nM in data set [2] (listed as 080).

The record behind these values is patent US11478451B1, “Macrocyclic chlorine substituted indole derivatives” (Bayer Aktiengesellschaft, priority 2017, dated 2022).
